Source: patent US20230085307A1, “PYRIDAZINONE COMPOUND AND HERBICIDE” (NISSAN CHEMICAL CORPORATION, priority 2019, published 2023)

Assays:
chickweed [1] = experiment: Test Example 5: herbicidal effect by foliage application, plastic box (Table 20, symbol P); assay type: in vivo, common chickweed (Stellaria media)
Outline: (§1)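 Foliar spray test: emulsion formulation diluted in water to a set application rate, sprayed onto 14-day-old plants raised in diluvial soil at 25° C to 30° C under glass. Both herbicidal effect and crop effect rated visually three weeks later.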

persian speedwell [2] = experiment: Test Example 5: herbicidal effect by foliage application, plastic box (Table 20, symbol R); assay type: in vivo, Persian speedwell (Veronica persica)
Outline: as §1

blackgrass [3] = experiment: Test Example 5: herbicidal effect by foliage application, plastic box (Table 20, symbol J); assay type: in vivo, blackgrass (Alopecurus myosuroides)
Outline: as §1

windgrass [4] = experiment: Test Example 5: herbicidal effect by foliage application, plastic box (Table 20, symbol L); assay type: in vivo, windgrass (Apera spica-venti); details: foliage application, AAH 320 g/ha, three weeks after application
Outline: as §1

redroot pigweed [5] = experiment: Test Example 5: herbicidal effect by foliage application, plastic box (Table 20, symbol N); assay type: in vivo, redroot pigweed (Amaranthus retroflexus)
Outline: as §1

persian speedwell [6] = experiment: Test Example 4: herbicidal effect by soil treatment (Table 19, symbol R); assay type: in vivo, Persian speedwell (Veronica persica)
Outline: (§2)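 Step 1: sow seeds in sterilized diluvial soil, cover ~1.5 cm. Step 2: spray diluted emulsion onto soil surface at predetermined rate. Step 3: greenhouse, 25–30° C, three weeks. Step 4: grade effect on each plant by earlier criteria.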

late watergrass = experiment: Test Example 1: herbicidal activity, application before weed generation under submerged conditions (Table 16, symbol A); assay type: in vivo, late watergrass (Echinochloa oryzicola)
Outline: (§3)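 Emulsion formulation, water-diluted to set dose, was put onto the flooded surface (4 cm depth, alluvial soil) the same day weeds were sown and 2.5-leaf rice transplanted. After 3 weeks at 25-30 °C under glass, each species was rated 0 (≤5% kill) to 5 (≥90% kill).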

velvetleaf [7] = experiment: Test Example 5: herbicidal effect by foliage application, plastic box (Table 20, symbol M); assay type: in vivo, velvetleaf (Abutilon theophrasti)
Outline: as §1

southern crabgrass [8] = experiment: Test Example 5: herbicidal effect by foliage application, plastic box (Table 20, symbol F); assay type: in vivo, southern crabgrass (Digitaria ciliaris)
Outline: as §1

blackgrass [9] = experiment: Test Example 4: herbicidal effect by soil treatment (Table 19, symbol J); assay type: in vivo, blackgrass (Alopecurus myosuroides)
Outline: as §2

barnyard grass [10] = experiment: Test Example 3: herbicidal effect by foliage application, Wagner pot (Table 18, symbol H); assay type: in vivo, barnyard grass (Echinochloa crus-galli); details: 320 g/ha
Outline: (§4)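 Plants were sown in alluvial soil held under 0.1–0.5 cm standing water and grown 14 days in a greenhouse at 25–30 °C. An emulsifiable formulation, water-diluted to the set dose, was then sprayed onto the foliage, and effects were scored three weeks later using previously defined criteria.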

windgrass [11] = experiment: Test Example 4: herbicidal effect by soil treatment (Table 19, symbol L); assay type: in vivo, windgrass (Apera spica-venti)
Outline: as §2

barnyard grass [12] = experiment: Test Example 4: herbicidal effect by soil treatment (Table 19, symbol H); assay type: in vivo, barnyard grass (Echinochloa crus-galli)
Outline: as §2

chickweed [13] = experiment: Test Example 4: herbicidal effect by soil treatment (Table 19, symbol P); assay type: in vivo, common chickweed (Stellaria media)
Outline: as §2

barnyard grass [14] = experiment: Test Example 5: herbicidal effect by foliage application, plastic box (Table 20, symbol H); assay type: in vivo, barnyard grass (Echinochloa crus-galli)
Outline: as §1

Japanese bulrush = experiment: Test Example 1: herbicidal activity, application before weed generation under submerged conditions (Table 16, symbol B); assay type: in vivo, Japanese bulrush (Schoenoplectus juncoides)
Outline: as §3

lambsquarters [15] = experiment: Test Example 5: herbicidal effect by foliage application, plastic box (Table 20, symbol O); assay type: in vivo, lambsquarters (Chenopodium album)
Outline: as §1

southern crabgrass [16] = experiment: Test Example 4: herbicidal effect by soil treatment (Table 19, symbol F); assay type: in vivo, southern crabgrass (Digitaria ciliaris)
Outline: as §2

wild oat [17] = experiment: Test Example 4: herbicidal effect by soil treatment (Table 19, symbol I); assay type: in vivo, wild oat (Avena fatua)
Outline: as §2

green foxtail [18] = experiment: Test Example 5: herbicidal effect by foliage application, plastic box (Table 20, symbol G); assay type: in vivo, green foxtail (Setaria viridis)
Outline: as §1

oval-leafed pondweed = experiment: Test Example 1: herbicidal activity, application before weed generation under submerged conditions (Table 16, symbol C); assay type: in vivo, oval-leafed pondweed (Monochoria vaginalis)
Outline: as §3

Chinese sprangletop = experiment: Test Example 3: herbicidal effect by foliage application, Wagner pot (Table 18, symbol D); assay type: in vivo, chinese sprangletop (Leptochloa chinensis); details: 320 g/ha
Outline: as §4

Italian ryegrass [19] = experiment: Test Example 5: herbicidal effect by foliage application, plastic box (Table 20, symbol K); assay type: in vivo, Italian ryegrass (Lolium multiflorum)
Outline: as §1

redroot pigweed [20] = experiment: Test Example 4: herbicidal effect by soil treatment (Table 19, symbol N); assay type: in vivo, redroot pigweed (Amaranthus retroflexus)
Outline: as §2

Italian ryegrass [21] = experiment: Test Example 4: herbicidal effect by soil treatment (Table 19, symbol K); assay type: in vivo, Italian ryegrass (Lolium multiflorum)
Outline: as §2

green foxtail [22] = experiment: Test Example 4: herbicidal effect by soil treatment (Table 19, symbol G); assay type: in vivo, green foxtail (Setaria viridis)
Outline: as §2

velvetleaf [23] = experiment: Test Example 4: herbicidal effect by soil treatment (Table 19, symbol M); assay type: in vivo, velvetleaf (Abutilon theophrasti)
Outline: as §2

lambsquarters [24] = experiment: Test Example 4: herbicidal effect by soil treatment (Table 19, symbol O); assay type: in vivo, lambsquarters (Chenopodium album)
Outline: as §2

wild oat [25] = experiment: Test Example 5: herbicidal effect by foliage application, plastic box (Table 20, symbol I); assay type: in vivo, wild oat (Avena fatua)
Outline: as §1

rice flat sedge = experiment: Test Example 3: herbicidal effect by foliage application, Wagner pot (Table 18, symbol E); assay type: in vivo, rice flat sedge (Cyperus iria); details: 320 g/ha
Outline: as §4

[26] = foliage application, AAH 320 g/ha, three weeks after application
[27] = 320 g/ha, foliage application after 14-day growth, evaluated three weeks after application
[28] = amount of applied herbicide 320 g/ha

Cc1nn(C)c(=O)c(-c2c(-c3ccc(OS(C)(=O)=O)cc3)sc3ccccc23)c1O [1-146]
P: chickweed, herbicidal effect (chickweed [1]; [26]): 5 (Herbicidal rate of 90% or more (almost completely withered)) | R: persian speedwell, herbicidal effect (persian speedwell [2]; [26]): 5 (Herbicidal rate of 90% or more (almost completely withered)) | J: blackgrass, herbicidal effect (blackgrass [3]; [26]): 1 (Herbicidal rate of 5% or more and less than 20%) | L: windgrass, herbicidal effect (windgrass [4]): 0 (Herbicidal rate of 5% or less (almost no effect)) | N: redroot pigweed, herbicidal effect (redroot pigweed [5]; [26]): 3 (Herbicidal rate of 40% or more and less than 70%) | R: persian speedwell, herbicidal effect rating (persian speedwell [6]; AAH 320 g/ha): 5 (Herbicidal rate of 90% or more (almost completely withered)) | Herbicidal effect on A: late watergrass (grade 0-5) (late watergrass; 320 g/ha applied herbicide): 3 (Herbicidal rate of 40% or more and less than 70%) | M: velvetleaf, herbicidal effect (velvetleaf [7]; [26]): 4 (Herbicidal rate of 70% or more and less than 90%) | F: southern crabgrass, herbicidal effect (southern crabgrass [8]; [26]): 4 (Herbicidal rate of 70% or more and less than 90%) | J: blackgrass, herbicidal effect rating (blackgrass [9]; AAH 320 g/ha): 0 (Herbicidal rate of 5% or less (almost no effect)) | herbicidal effect on H (barnyard grass), rating 0-5 (barnyard grass [10]): 5 (Herbicidal rate of 90% or more (almost completely withered)) | L: windgrass, herbicidal effect rating (windgrass [11]; AAH 320 g/ha): 0 (Herbicidal rate of 5% or less (almost no effect)) | H: barnyard grass, herbicidal effect rating (barnyard grass [12]; AAH 320 g/ha): 5 (Herbicidal rate of 90% or more (almost completely withered)) | P: chickweed, herbicidal effect rating (chickweed [13]; AAH 320 g/ha): 4 (Herbicidal rate of 70% or more and less than 90%) | H: barnyard grass, herbicidal effect (barnyard grass [14]; [26]): 5 (Herbicidal rate of 90% or more (almost completely withered)) | Herbicidal effect on B: Japanese bulrush (grade 0-5) (Japanese bulrush; 320 g/ha applied herbicide): 0 (Herbicidal rate of 5% or less (almost no effect)) | O: lambsquarters, herbicidal effect (lambsquarters [15]; [26]): 3 (Herbicidal rate of 40% or more and less than 70%) | F: southern crabgrass, herbicidal effect rating (southern crabgrass [16]; AAH 320 g/ha): 4 (Herbicidal rate of 70% or more and less than 90%) | I: wild oat, herbicidal effect rating (wild oat [17]; AAH 320 g/ha): 0 (Herbicidal rate of 5% or less (almost no effect)) | G: green foxtail, herbicidal effect (green foxtail [18]; [26]): 5 (Herbicidal rate of 90% or more (almost completely withered)) | Herbicidal effect on C: oval-leafed pondweed (grade 0-5) (oval-leafed pondweed; 320 g/ha applied herbicide): 0 (Herbicidal rate of 5% or less (almost no effect)) | herbicidal effect on D (Chinese sprangletop), rating 0-5 (Chinese sprangletop): 2 (Herbicidal rate of 20% or more and less than 40%) | K: Italian ryegrass, herbicidal effect (Italian ryegrass [19]; [26]): 5 (Herbicidal rate of 90% or more (almost completely withered)) | N: redroot pigweed, herbicidal effect rating (redroot pigweed [20]; AAH 320 g/ha): 5 (Herbicidal rate of 90% or more (almost completely withered)) | K: Italian ryegrass, herbicidal effect rating (Italian ryegrass [21]; AAH 320 g/ha): 4 (Herbicidal rate of 70% or more and less than 90%) | G: green foxtail, herbicidal effect rating (green foxtail [22]; AAH 320 g/ha): 5 (Herbicidal rate of 90% or more (almost completely withered)) | M: velvetleaf, herbicidal effect rating (velvetleaf [23]; AAH 320 g/ha): 5 (Herbicidal rate of 90% or more (almost completely withered)) | O: lambsquarters, herbicidal effect rating (lambsquarters [24]; AAH 320 g/ha): 5 (Herbicidal rate of 90% or more (almost completely withered)) | I: wild oat, herbicidal effect (wild oat [25]; [26]): 0 (Herbicidal rate of 5% or less (almost no effect))

COc1ccc(-c2sc3c(Cl)cccc3c2-c2c(O)c(C)nn(C)c2=O)cc1 [4-023]
herbicidal effect on P: chickweed (evaluation grade 0-5) (chickweed [1]; [27]): 5 (Herbicidal rate of 90% or more (almost completely withered)) | herbicidal effect on R: persian speedwell (evaluation grade 0-5) (persian speedwell [2]; [27]): 0 (Herbicidal rate of 5% or less (almost no effect)) | herbicidal effect on J: blackgrass (evaluation grade 0-5) (blackgrass [3]; [27]): 0 (Herbicidal rate of 5% or less (almost no effect)) | herbicidal effect on N: redroot pigweed (evaluation grade 0-5) (redroot pigweed [5]; [27]): 1 (Herbicidal rate of 5% or more and less than 20%) | Herbicidal effect by soil treatment, R: persian speedwell (persian speedwell [6]; [28]): 0 (Herbicidal rate of 5% or less (almost no effect)) | Herbicidal effect, A: late watergrass (late watergrass; [28]): 3 (Herbicidal rate of 40% or more and less than 70%) | herbicidal effect on M: velvetleaf (evaluation grade 0-5) (velvetleaf [7]; [27]): 3 (Herbicidal rate of 40% or more and less than 70%) | herbicidal effect on F: southern crabgrass (evaluation grade 0-5) (southern crabgrass [8]; [27]): 0 (Herbicidal rate of 5% or less (almost no effect)) | Herbicidal effect by soil treatment, J: blackgrass (blackgrass [9]; [28]): 0 (Herbicidal rate of 5% or less (almost no effect)) | herbicidal effect on barnyard grass (H) (barnyard grass [10]): 5 (Herbicidal rate of 90% or more (almost completely withered)) | Herbicidal effect by soil treatment, L: windgrass (windgrass [11]; [28]): 0 (Herbicidal rate of 5% or less (almost no effect)) | Herbicidal effect by soil treatment, H: barnyard grass (barnyard grass [12]; [28]): 0 (Herbicidal rate of 5% or less (almost no effect)) | Herbicidal effect by soil treatment, P: chickweed (chickweed [13]; [28]): 5 (Herbicidal rate of 90% or more (almost completely withered)) | herbicidal effect on H: barnyard grass (evaluation grade 0-5) (barnyard grass [14]; [27]): 2 (Herbicidal rate of 20% or more and less than 40%) | Herbicidal effect, B: Japanese bulrush (Japanese bulrush; [28]): 0 (Herbicidal rate of 5% or less (almost no effect)) | herbicidal effect on O: lambsquarters (evaluation grade 0-5) (lambsquarters [15]; [27]): 2 (Herbicidal rate of 20% or more and less than 40%) | Herbicidal effect by soil treatment, F: southern crabgrass (southern crabgrass [16]; [28]): 0 (Herbicidal rate of 5% or less (almost no effect)) | Herbicidal effect by soil treatment, I: wild oat (wild oat [17]; [28]): 0 (Herbicidal rate of 5% or less (almost no effect)) | herbicidal effect on G: green foxtail (evaluation grade 0-5) (green foxtail [18]; [27]): 1 (Herbicidal rate of 5% or more and less than 20%) | Herbicidal effect, C: oval-leafed pondweed (oval-leafed pondweed; [28]): 0 (Herbicidal rate of 5% or less (almost no effect)) | herbicidal effect on Chinese sprangletop (D) (Chinese sprangletop): 3 (Herbicidal rate of 40% or more and less than 70%) | herbicidal effect on K: Italian ryegrass (evaluation grade 0-5) (Italian ryegrass [19]; [27]): 5 (Herbicidal rate of 90% or more (almost completely withered)) | Herbicidal effect by soil treatment, N: redroot pigweed (redroot pigweed [20]; [28]): 2 (Herbicidal rate of 20% or more and less than 40%) | Herbicidal effect by soil treatment, K: Italian ryegrass (Italian ryegrass [21]; [28]): 5 (Herbicidal rate of 90% or more (almost completely withered)) | Herbicidal effect by soil treatment, G: green foxtail (green foxtail [22]; [28]): 0 (Herbicidal rate of 5% or less (almost no effect)) | Herbicidal effect by soil treatment, M: velvetleaf (velvetleaf [23]; [28]): 0 (Herbicidal rate of 5% or less (almost no effect)) | herbicidal effect on rice flat sedge (E) (rice flat sedge): 5 (Herbicidal rate of 90% or more (almost completely withered)) | Herbicidal effect by soil treatment, O: lambsquarters (lambsquarters [24]; [28]): 3 (Herbicidal rate of 40% or more and less than 70%) | herbicidal effect on I: wild oat (evaluation grade 0-5) (wild oat [25]; [27]): 0 (Herbicidal rate of 5% or less (almost no effect))
